Patent US11802120B2, “Fused cyclic urea derivatives as CRHR2 antagonist” (RaQualia Pharma Inc., priority 2018, dated 2023)

Molecular target: T1, human CRHR2-alpha (Homo sapiens, UniProt Q13324)
T1 sequence (Q13324 1-411): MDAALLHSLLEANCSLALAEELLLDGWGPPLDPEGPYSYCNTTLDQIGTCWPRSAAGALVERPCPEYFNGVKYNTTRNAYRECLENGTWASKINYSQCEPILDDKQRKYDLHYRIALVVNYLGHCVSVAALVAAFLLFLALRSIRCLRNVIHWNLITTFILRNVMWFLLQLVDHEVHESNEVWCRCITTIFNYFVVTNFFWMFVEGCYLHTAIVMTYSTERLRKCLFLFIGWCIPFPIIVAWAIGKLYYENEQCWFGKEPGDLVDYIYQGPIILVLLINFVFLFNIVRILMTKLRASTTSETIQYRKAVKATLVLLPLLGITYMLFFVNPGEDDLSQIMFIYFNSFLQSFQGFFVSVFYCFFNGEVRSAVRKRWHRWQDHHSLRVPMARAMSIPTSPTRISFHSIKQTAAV
Experiment: cAMP functional assay for human CRHR2 (LANCE Ultra cAMP, TR-FRET)
Format: cell-based
Settings: CHO-K1 cells expressing human CRHR2-alpha, agonist human urocortin2 at EC80, cAMP; read-out: IC50 against CRHR2
Method in brief: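 Antagonism measured in CHO-K1 cells stably expressing the receptor, serum-starved 7 h then cryopreserved. Thawed cells in HBSS buffer with 0.1% BSA, 0.5 mM IBMX, 5 mM Hepes pH 7.4 were preincubated with compound 30 min at 25° C, then stimulated 30 min with EC80 agonist: urocortin2 for CRHR2, CRF for CRHR1.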

Row | SMILES | IC50 [µM]
1 | Cc1ncc(Cl)cc1C(=O)N[C@H]1CC[C@H](Cn2c(=O)n(-c3ccc4c(CO)noc4c3)c3ccccc32)CC1 [Example 261, 5-chloro-N-((1r,4r)-4-((3-(3-(hydroxymethyl)benzo[d]isoxazol-6-yl)-2-oxo-2,3-dihydro-1H-benzo[d]imidazol-1-yl)methyl)cyclohexyl)-2-methylnicotinamide] | < 0.3
2 | Cc1ncc(Cl)cc1C(=O)N[C@H]1CC[C@H](Cn2c(=O)n(-c3ccncc3Cl)c3ccccc32)CC1 [Example 262, 5-chloro-N-((1r,4r)-4-((3-(3-chloropyridin-4-yl)-2-oxo-2,3-dihydro-1H-benzo[d]imidazol-1-yl)methyl)cyclo-hexyl)-2-methylnicotinamide] | < 0.3
3 | Cc1ncc(Cl)cc1C(=O)N[C@H]1CC[C@H](Cn2c(=O)n(-c3ccc4oc(N)nc4c3)c3ccccc32)CC1 [Example 263, N-((1r,4r)-4-((3-(2-aminobenzo[d]oxazol-5-yl)-2-oxo-2,3-dihydro-1H-benzo[d]imidazol-1-yl)methyl)cyclohexyl)-5-chloro-2-methylnicotinamide] | < 0.3
4 | Cc1ncc(Cl)cc1C(=O)N[C@H]1CC[C@H](Cn2c(=O)n(-c3ccc4ocnc4c3)c3ccccc32)CC1 [Example 264, N-((1r,4r)-4-((3-(benzo[d]oxazol-5-yl)-2-oxo-2,3-dihydro-1H-benzo[d]imidazol-1-yl)methyl)cyclo-hexyl)-5-chloro-2-methyl-nicotinamide] | < 0.3
5 | Cc1ccc(-n2c(=O)n(C[C@H]3CC[C@H](NC(=O)c4cc(Cl)cnc4C(F)(F)F)CC3)c3ccccc32)cn1 [Example 265, 5-chloro-N-((1r,4r)-4-((3-(6-methylpyridin-3-yl)-2-oxo-2,3-dihydro-1H-benzo [d]imidazol-1-yl)methyl)cyclohexyl)-2-(trifluoro-methyl)nicotinamide] | < 0.3
6 | Cc1ccc(-n2c(=O)n(C[C@H]3CC[C@H](NC(=O)c4cc(Cl)ccc4C4CC4)CC3)c3ccccc32)cn1 [Example 266, 5-chloro-2-cyclopropyl-N-((1r,4r)-4-((3-(6-methyl-pyridin-3-yl)-2-oxo-2,3-dihydro-1H-benzo[d]imidazol-1-yl)methyl)cyclo-hexyl)benzamide] | < 0.3
7 | Cc1ccc(-n2c(=O)n(C[C@H]3CC[C@H](NC(=O)c4cc(Cl)ccc4C)CC3)c3ccccc32)cn1 [Example 267, 5-chloro-2-methyl-N-((1r,4r)-4-((3-(6-methyl-pyridin-3-yl)-2-oxo-2,3-dihydro-1H-benzo[d]imidazol-1-yl)methyl)cyclo-hexyl)benzamide] | < 0.3
8 | Cc1ccc(C(F)(F)F)c(C(=O)N[C@H]2CC[C@H](Cn3c(=O)n(-c4ccc(C)nc4)c4ccccc43)CC2)c1 [Example 268, 5-methyl-N-((1r,4r)-4-((3-(6-methylpyridin-3-yl)-2-oxo-2,3-dihydro-1H-benzo[d]imidazol-1-yl)methyl)cyclohexyl)-2-(trifluoromethyl)benzamide] | < 0.3
9 | Cc1ccc(-n2c(=O)n(C[C@H]3CC[C@H](NC(=O)c4cc(Cl)ccc4Cl)CC3)c3ccccc32)cn1 [Example 269, 2,5-dichloro-N-((1r,4r)-4-((3-(6-methylpyridin-3-yl)-2-oxo-2,3-dihydro-1H-benzo[d]imidazol-1-yl)methyl)cyclohexyl)benzamide] | < 0.3
10 | Cc1ccc(-n2c(=O)n(C[C@H]3CC[C@H](NC(=O)c4cc(Cl)ccc4C(F)(F)F)CC3)c3ccccc32)cn1 [Example 270, 5-chloro-N-((1r,4r)-4-((3-(6-methylpyridin-3-yl)-2-oxo-2,3-dihydro-1H-benzo[d]imidazol-1-yl)methyl)cyclo-hexyl)-2-(trifluoromethyl) benzamide] | < 0.3
11 | Cc1ncc(Cl)cc1C(=O)N[C@H]1CC[C@H](Cn2c(=O)n(-c3cnc4[nH]nc(C)c4c3)c3ccccc32)CC1 [Example 271, 5-chloro-2-methyl-N-((1r,4r)-4-((3-(3-methyl-1H-pyrazolo[3,4-b]pyridin-5-yl)-2-oxo-2,3-dihydro-1H-benzo[d]imidazol-1-yl)methyl)cyclohexyl)nicotinamide] | < 0.3
12 | Cc1ncc(Cl)cc1C(=O)N[C@H]1CC[C@H](Cn2c(=O)n(-c3ccn4ccnc4c3)c3ccccc32)CC1 [Example 272, 5-chloro-N-((1r,4r)-4-((3-(imidazo[1,2-a]pyridin-7-yl)-2-oxo-2,3-dihydro-1H-benzo [d]imidazol-1-yl)methyl)cyclohexyl)-2-methyl-nicotinamide] | < 0.3
13 | Cc1ncc(Cl)cc1C(=O)N[C@H]1CC[C@H](Cn2c(=O)n(-c3cc(N(C)C)ccc3C#N)c3ccccc32)CC1 [Example 273, 5-chloro-N-((1r,4r)-4-((3-(2-cyano-5-(dimethylamino)phenyl)-2-oxo-2,3-dihydro-1H-benzo[d]imidazol-1-yl)methyl)cyclohexyl)-2-methylnicotinamide] | < 0.3
14 | Cc1ncc(Cl)cc1C(=O)N[C@H]1CC[C@H](Cn2c(=O)n(-c3ccc4cncn4c3)c3ccccc32)CC1 [Example 274, 5-chloro-N-((1r,4r)-4-((3-(imidazo[1,5-a]pyridin-6-yl)-2-oxo-2,3-dihydro-1H-benzo [d]imidazol-1-yl)methyl)cyclohexyl)-2-methylnico-tinamide] | < 0.3
15 | Cc1ncc(Cl)cc1C(=O)N[C@H]1CC[C@H](Cn2c(=O)n(-c3cnc4c(c3)nnn4C)c3ccccc32)CC1 [Example 275, 5-chloro-2-methyl-N-((1r,4r)-4-((3-(3-methyl-3H-[1,2,3]triazolo[4,5-b]pyridin-6-yl)-2-oxo-2,3-dihydro-1H-benzo [d]imidazol-1-yl)methyl)cyclohexyl)nicotinamide] | < 0.3
16 | Cc1ncc(Cl)cc1C(=O)N[C@H]1CC[C@H](Cn2c(=O)n(-c3ccc4c(c3)nnn4CCO)c3ccccc32)CC1 [Example 276, 5-chloro-N-((1r,4r)-4-((3-(1-(2-hydroxyethyl)-1H-benzo[d][1,2,3]triazol-5-yl)-2-oxo-2,3-dihydro-1H-benzo[d]imidazol-1-yl)methyl)cyclohexyl)-2-methylnicotinamide] | < 0.3
17 | CCn1c(=O)oc2cc(-n3c(=O)n(C[C@H]4CC[C@H](NC(=O)c5cc(Cl)cnc5C)CC4)c4ccccc43)cnc21 [Example 277, 5-chloro-N-((1r,4r)-4-((3-(3-ethyl-2-oxo-2,3-dihydro-oxazolo[4,5-b]pyridin-6-yl)-2-oxo-2,3-dihydro-1H-benzo [d]imidazol-1-yl)methyl)cyclohexyl)-2-methylnico-tinamide] | < 0.3
18 | Cc1ncc(Cl)cc1C(=O)N[C@H]1CC[C@H](Cn2c(=O)n(-c3ccc4ncnn4c3)c3ccccc32)CC1 [Example 278, N-((1r,4r)-4-((3-([1,2,4]triazolo [1,5-a]pyridin-6-yl)-2-oxo-2,3-dihydro-1H-benzo[d]imidazol-1-yl)methyl)cyclohexyl)-5-chloro-2-methylnicotinamide] | < 0.3
19 | Cc1ncc(Cl)cc1C(=O)N[C@H]1CC[C@H](Cn2c(=O)n(-c3ccc(C4CCC4)nc3)c3ccccc32)CC1 [Example 279, 5-chloro-N-((1r,4r)-4-((3-(6-cyclobutylpyridin-3-yl)-2-oxo-2,3-dihydro-1H-benzo[d]imidazol-1-yl)methyl)cyclohexyl)-2-methylnicotinamide] | < 0.3
